Source: PubChem BioAssay (NCI)
Several values for one entry are separate records, joined by “and”; a condition that tells them apart may be missing. Equal entries are not always repeated.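 Interpolation was linear, between the two tested concentrations surrounding the appropriate level; five concentrations were tested over 48 hours in 96-well plates. GI50 marks 50% less growth. TGI denotes the concentration required for complete inhibition of growth.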

Assays:
Experiment in all cases: growth of human tumour cells (NCI), 48 h
[1] = tested on: UO-31 renal
[2] = tested on: EKVX NSCLC
[3] = tested on: MALME-3M melanoma
[4] = tested on: SF-268 CNS
[5] = tested on: HOP-62 NSCLC
[6] = tested on: NCI/ADR-RES ovarian
[7] = tested on: MOLT-4 leukemia
[8] = tested on: SK-MEL-28 melanoma
[9] = tested on: A549 NSCLC
[10] = tested on: RPMI-8226 leukemia

NC(=O)c1cc(Cl)ccc1NC(=O)/C=C/c1ccccc1
GI50 [1]: 10.1 µM
TGI [1]: > 100 µM
GI50 [2]: 2.83 µM
TGI [2]: > 100 µM
GI50 [3]: 3.18 µM
TGI [3]: > 100 µM
GI50 [4]: 5.96 µM
TGI [4]: > 60.4 µM
GI50 [5]: 7.79 µM
TGI [5]: > 41.6 µM
GI50 [6]: 2.63 µM
TGI [6]: > 26.9 µM
GI50 [7]: 3.44 µM
TGI [7]: > 100 µM
GI50 [8]: 2.58 µM
TGI [8]: > 100 µM
GI50 [9]: 4.18 µM
TGI [9]: > 100 µM
GI50 [10]: 2.86 µM
TGI [10]: > 100 µM

CCc1nc(N)nc(N)c1-c1ccc(NC)c([N+](=O)[O-])c1
TGI [1]: > 100 µM
TGI [2]: > 100 µM
TGI [3]: > 100 µM
TGI [4]: > 100 µM
TGI [5]: 37.7 µM
TGI [6]: > 100 µM
TGI [7]: > 68.2 µM
TGI [8]: > 100 µM
TGI [9]: > 100 µM
TGI [10]: > 43.3 µM

COc1ccc(C[N+](C)(C)N)cc1OC
TGI [1]: > 100 µM
TGI [2]: > 100 µM
GI50 [3]: > 100 µM
TGI [3]: > 100 µM
GI50 [4]: > 100 µM
TGI [4]: > 100 µM
GI50 [5]: > 100 µM
TGI [5]: > 100 µM
GI50 [6]: > 100 µM
TGI [6]: > 100 µM
GI50 [7]: > 100 µM
TGI [7]: > 100 µM
GI50 [8]: > 100 µM
TGI [8]: > 100 µM
GI50 [9]: > 100 µM
TGI [9]: > 100 µM
GI50 [10]: > 100 µM
TGI [10]: > 100 µM

Cc1cc(C)c(NC(=O)c2sc3nc4c(cc3c2N)C(=O)CCC4)c(C)c1
GI50 [1]: 9.04 µM
TGI [1]: > 100 µM
GI50 [2]: 4.28 µM
TGI [2]: > 100 µM
GI50 [3]: 1.83 µM
TGI [3]: > 100 µM
GI50 [4]: 6.69 µM
TGI [4]: > 100 µM
GI50 [5]: 4.56 µM
TGI [5]: > 100 µM
GI50 [6]: 2.08 µM
TGI [6]: 6.45 µM
GI50 [7]: 5.68 µM
TGI [7]: > 100 µM
GI50 [8]: 5.9 µM
TGI [8]: > 100 µM
GI50 [9]: 2.51 µM
TGI [9]: > 100 µM
GI50 [10]: 4.74 µM
TGI [10]: > 100 µM

Nc1nc(Nc2cccnc2)sc1C(=O)c1ccccc1F
GI50 [1]: 2.45 µM
TGI [1]: > 26.5 µM
GI50 [2]: 2.6 µM
TGI [2]: 13.9 µM
GI50 [3]: 3.29 µM
TGI [3]: 12.4 µM
GI50 [4]: 3.24 µM
TGI [4]: 25.8 µM
GI50 [5]: 6.67 µM
TGI [5]: > 93.8 µM
GI50 [6]: 0.844 µM
TGI [6]: 12.2 µM
GI50 [7]: 2.52 µM
TGI [7]: > 26.6 µM
GI50 [8]: 4.13 µM
TGI [8]: 22.3 µM
GI50 [9]: 3.16 µM
TGI [9]: > 100 µM
GI50 [10]: 3.06 µM
TGI [10]: 7.35 µM

CC/C=C\C[C@H](O)C/C=C1/C(=O)C=C[C@@H]1C/C=C\CCCC(=O)OC
GI50 [1]: 1.75 µM
TGI [1]: 3.4 µM
GI50 [2]: 3.11 µM
TGI [2]: 12.4 µM
GI50 [3]: 2.14 µM
TGI [3]: 6.24 µM
GI50 [4]: 2.56 µM
TGI [4]: 11.8 µM
GI50 [5]: 1.48 µM
TGI [5]: 5.15 µM
GI50 [6]: 2.61 µM
TGI [6]: 10.8 µM
GI50 [7]: 0.945 µM
TGI [7]: 4.8 µM
GI50 [8]: 1.81 µM
TGI [8]: 4.37 µM
GI50 [9]: 2.78 µM
TGI [9]: 7.63 µM
GI50 [10]: 1 µM
TGI [10]: 9.21 µM

Cc1ccc(NC(=O)c2cccc(C(C)(C)C#N)c2)cc1Nc1ccc2ncn(C)c(=O)c2c1
GI50 [1]: 0.475 µM
TGI [1]: > 100 µM
GI50 [2]: 3.74 µM
TGI [2]: > 100 µM
TGI [3]: 0.0434 µM
GI50 [4]: 6.01 µM
TGI [4]: > 100 µM
GI50 [5]: 1.11 µM
TGI [5]: > 100 µM
GI50 [6]: 4.12 µM
TGI [6]: > 100 µM
GI50 [7]: 5.2 µM
TGI [7]: > 100 µM
GI50 [8]: 0.0192 µM
GI50 [9]: 8.16 µM
TGI [9]: > 100 µM
GI50 [10]: 3.25 µM
TGI [10]: > 100 µM

Cc1cc2ncnn2cc1Nc1ncc2c(n1)n(C1CCOCC1)c(=O)n2C
GI50 [1]: 2.83 µM
TGI [1]: > 100 µM
GI50 [2]: 10.8 µM
TGI [2]: > 100 µM
GI50 [3]: 2.49 µM
TGI [3]: 29.3 µM
GI50 [4]: 6.18 µM
TGI [4]: > 100 µM
GI50 [5]: 3.95 µM
TGI [5]: 78.2 µM
GI50 [6]: 19.9 µM
TGI [6]: > 100 µM
GI50 [7]: 6.09 µM
TGI [7]: 52 µM
GI50 [8]: 5.71 µM
TGI [8]: 64.1 µM
GI50 [9]: 7.22 µM
TGI [9]: > 100 µM
GI50 [10]: 4.41 µM
TGI [10]: > 100 µM

c1ccc(Sc2ccc(Cc3nc4cc5ccccc5cc4[nH]3)cc2)cc1
GI50 [1]: 20.7 µM
TGI [1]: > 100 µM
GI50 [2]: 12.5 µM
TGI [2]: > 100 µM
GI50 [3]: 9.93 µM
TGI [3]: 66.7 µM
GI50 [4]: 8.48 µM
TGI [4]: > 100 µM
GI50 [5]: 8.71 µM
TGI [5]: > 75.5 µM
GI50 [6]: 15.5 µM
TGI [6]: > 62.7 µM
GI50 [7]: 8.18 µM
TGI [7]: > 100 µM
GI50 [8]: 37.7 µM
TGI [8]: > 100 µM
GI50 [9]: 2.33 µM
TGI [9]: > 61.4 µM
GI50 [10]: 3.77 µM
TGI [10]: 49.7 µM

COc1ccc2[nH]c3c4[nH]c5ccc(OC)cc5c4c4c(c3c2c1)C(=O)NC4=O
GI50 [1]: 0.654 µM
TGI [1]: > 25 µM
GI50 [2]: > 25 µM
TGI [2]: > 25 µM
GI50 [3]: 12.4 µM
TGI [3]: > 25 µM
GI50 [4]: > 22 µM
TGI [4]: > 25 µM
GI50 [5]: > 25 µM
TGI [5]: > 25 µM
GI50 [6]: > 25 µM
TGI [6]: > 25 µM
GI50 [7]: > 10.3 µM
TGI [7]: > 25 µM
GI50 [8]: > 25 µM
TGI [8]: > 25 µM
GI50 [9]: > 9.75 µM
TGI [9]: > 25 µM
GI50 [10]: 0.998 µM
TGI [10]: > 25 µM

COc1cc(Cc2nccc3cc(OC)c(OC)cc23)c(C(C)=O)cc1OC
GI50 [1]: > 750 µM
TGI [1]: > 750 µM
TGI [2]: 295 µM
GI50 [3]: 72.1 µM and 22.6 µM
TGI [3]: 64.1 µM and 158 µM
TGI [4]: 419 µM
GI50 [5]: 101 µM
TGI [5]: 135 µM and 394 µM
TGI [6]: > 300 µM
GI50 [7]: > 750 µM
TGI [7]: > 750 µM
GI50 [8]: 20.4 µM and 142 µM
TGI [8]: 42.1 µM and 331 µM
GI50 [9]: > 750 µM
TGI [9]: > 750 µM
TGI [10]: 265 µM and > 750 µM

CCCC(CCC)NCC(O)c1cc(-c2ccc(C(F)(F)F)cc2)nc(C(F)(F)F)c1 (configuration not stated)
GI50 [1]: 1.58 µM
TGI [1]: 3.13 µM
GI50 [2]: 2.01 µM
TGI [2]: 3.81 µM
GI50 [3]: 2.05 µM
TGI [3]: 4.02 µM
GI50 [4]: 1.86 µM
TGI [4]: 3.38 µM
GI50 [5]: 1.66 µM
TGI [5]: 3.12 µM
GI50 [6]: 1.63 µM
TGI [6]: 3.25 µM
GI50 [7]: 1.89 µM
TGI [7]: 3.84 µM
GI50 [8]: 1.92 µM
TGI [8]: 3.45 µM
GI50 [9]: 1.79 µM
TGI [9]: 3.28 µM
GI50 [10]: 2.15 µM
TGI [10]: 4.87 µM
